Test system: appetite of cats
Test: Food consumption (appetite) of stressed healthy cats after dose administration
Type: in vivo, cat
Details: subcutaneous injection 3.75 mg vs oral 3.75 mg
From the text: The purpose of these tests is to evaluate the effect of administration of mirtazapine by subcutaneous injection on the appetite of cats as compared to dose administration by the oral route (positive control) and a control (injection of saline solution, negative control). The healthy cats selected were previously acclimated for at least seven days prior to testing; during this period, they were examined by a veterinarian. They were then divided into three groups of two cats each according to a cross-over experimental design, with each cat receiving each of the 3 treatments according to a predetermined sequence: • 0.5 ml of saline (0.9% sodium chloride) was administered by subcutaneous injection in the interscapular area to the T0 group which represents the negative control; • the group T1 received a subcutaneous injection, in the interscapular area, of 0.5 ml of the tested formulation of mirtazapine (represents a dose administration of 3.75 mg of mirtazapine); • the group T3 instead received 0.25 ml (represents a dose administration of 3.75 mg of mirtazapine) of the liquid formulation by means of forced administration (syringe) in the mouth and represents the positive control group. […] The food consumption is represented in FIGS. 2A (food consumption measured at each point) and 2B (cumulative food consumption).

## CN1CCN2c3ncccc3Cc3ccccc3C2C1 (centres unmarked) [mirtazapine, 1,2,3,4,10,14b-hexahydro-2-methylpyrazino(2,1-a)pyrido(2,3-c)benzazepine]
  duration of appetite induction compared with oral administration: inducing appetite for a longer time period
  increase in appetite (food consumption) compared with same dose by oral route: as effective as the administration of the same dose by oral route

From patent publication US10071102B2, “Injectable mirtazapine for treating appetite loss and nutritional disorders in cats” (VIRBAC, priority 2013, dated 2018)
